Drawing on patent EP0563732A1, “7-oxo-7H-pyrido(1,2,3-de)(1,4)benzoxazinecarboxylic acids and esters and their use as antiviral agents” (BAYER AG, priority 1992, dated 1993), this text covers IC50 for five molecules.

The test deals with Hepatitis B Virus. As to the kind of experiment: HBV test system: HBV-DNA in the supernatant of transfected hepatoma cells (PEG precipitation, non-radioactive HBV DNA probe). It counts as cell-based. Particulars: HepG2.2.15, 50% inhibition of HBV-DNA concentration in supernatant, HEP G2.2.15 cells, read-out: IC₅₀. An excerpt: Der Nachweis wurde in mit Hepatitis B Virus DNA transfizierten Hepatomzellen (HEP G2.2.15) geführt. Die Ergebnisse der unten aufgeführten Beispiele wurden zu dem in der folgenden Literaturangabe [Sells, M.A.; Chen, M.L., Acs, G., Proc. Natl. Acad. Sci. USA S. 1005 - 1009, Vol. 84 (1987] beschriebenen HBV-Testsystem ermittelt:
Transfizierte Hepatomzellen (HEP G2.2.15) wurden mit verschiedenen Konzentrationen an der jeweiligen Verbindung inkubiert. Durch Behandlung der transfizierten Hepatomzellinie HEP G2.2.15 mit den erfindungsgemäßen Verbindungen konnte das […] der virusspezifischen HBV-DNA im Überstand sowie eine Reduktion des HBsAg Spiegels gezeigt werden. Es wurde weiter gefunden, daß die erfindungsgemäßen Verbindungen zu einer Reduktion der replikativen Intermediate der Hepatitisviren führen. Im Überstand der Zellkulturen wurde nach PEG Fällung der Gehalt an HBV-DNA bestimmt. Dies geschah unter Verwendung einer nicht radioaktiv markierten HBV genomischen DNA Probe [Pauly, P., 1982, Ph.D. Thesis, University of Göttingen, F.R.G.; Köchel et al., 1990, EMBL, Accession-Nr. X 51790]. Gleichzeitig erfolgte der Nachweis der Beeinflussung der HBsAg Bildung mittels eines kommerziell erhältlichen Elisa Tests. Die angegebenen IC₅₀-Werte beziehen sich auf die Substratkonzentrationen, die unter den oben aufgeführten Testbedingungen eine 50%ige Hemmung der HBV-DNA Konzentration im Überstand bewirken. Tabelle A
Gleichzeitig erfolgte die Bestimmung des möglicherweise vorhandenen cytotoxischen Einflusses der erfindungsgemäßen Verbindungen mittels Kristallviolettfärbung bzw. über den Einbau von radioaktiv markiertem Thymidin in die zelluläre DNA.

Structures can show the parent of a compound that is named as a salt.

On to `CN1CCN(c2c(F)cc3c(=O)c(C(=O)O)cn4c3c2OC(C(C)(C)C)=C4)CC1` [Beispiel 1, 2-tert-Butyl-9-fluor-10-(4-methyl-1-piperazinyl)-7-oxo-7H-pyrido[1,2,3-de][1,4]-benzoxacin-6-carbonsäure], for which the IC50 amounted to 100 nM.

Consider `CC1=COc2c(N3CCOCC3)c(F)cc3c(=O)c(C(=O)O)cn1c23` [Beispiel 16], for which the IC50 is 5000 nM. With `COC(=O)c1cn2c3c(c(N4CCNCC4)c(F)cc3c1=O)OC=C2C` [Beispiel 33], the IC50 came out at 500 nM. Take `CCOC(=O)c1cn2c3c(c(N4CCC(N)C4)c(F)cc3c1=O)OC(c1ccc(OC)cc1)=C2` (centres unmarked) [Beispiel 38, 10-(3-Amino-1-pyrrolidinyl)-9-fluor-2-(4-methoxyphenyl)-7-oxo-7H-pyrido[1,2,3-de][1,4]benzoxacin-6-carbonsäureethylester-hydrochlorid]: the IC50 was found to be 5000 nM.

For the molecule `CC1=COc2c(N3CCNCC3)c(F)cc3c(=O)c(C(=O)O)cn1c23` [Beispiel 39], the IC50 is 100 nM.
